Experimental data: patent publication US8859496B2, “Pharmaceutical composition using connective-tissue growth factor” (Postech Academy-Industry Foundation, priority 2010, dated 2014)
No end group written: not given here.

Experiments:
[1] = target: T1, FPRL1 (Homo sapiens, UniProt P25090); experiment: Flow cytometry binding of biotinylated linker polypeptide to FPRL1/RBL, vector/RBL or FPR/RBL cells
T1 construct: expressed in transfected cells; host or cells: rat basophil leukemia RBL-2H3 cells, kept under G418
T1 sequence (P25090 1-351): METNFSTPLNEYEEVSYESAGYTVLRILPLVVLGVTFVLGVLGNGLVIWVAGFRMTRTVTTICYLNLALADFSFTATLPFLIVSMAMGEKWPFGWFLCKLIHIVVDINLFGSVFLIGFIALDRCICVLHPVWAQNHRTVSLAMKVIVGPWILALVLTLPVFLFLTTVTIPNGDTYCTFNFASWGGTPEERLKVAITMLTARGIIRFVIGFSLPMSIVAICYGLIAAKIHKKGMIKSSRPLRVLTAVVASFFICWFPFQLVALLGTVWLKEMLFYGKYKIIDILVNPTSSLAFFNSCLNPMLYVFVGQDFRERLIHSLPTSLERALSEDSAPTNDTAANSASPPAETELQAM
Method: To evaluate the degree of binding of linker polypeptide corresponding to the link region of human CTGF, linker polypeptide was labeled using a EZ-Link Micro Sulfo-NHS-LC-Biotinylation kit (Pierce Chemical Co., Rockford, Ill., USA) according to the manufacturer's instruction. The linker polypeptide was cultured at room temperature for 1 hour in PBS with 9 mM sulfo-NHS-LC-biotin (Pierce Chemical Co., Rockford, Ill., USA). During biotinylation, vector/RBL cells, FPR/RBL cells, FPRL1/RBL cells, or HUVECs were treated with trypsin, and collected, and then, treated with rabbit serum at room temperature for 30 minutes. After culturing the biotinylated linker polypeptide in the ice for 30 minutes, the cells were shortly washed with ice-cold PBS, cultured with antihuman fluoroscein-5-isothiocyanate (FITC)-conjugated streptavidin (Pierce Chemical Co.), and then, washed with ice-cold PBS, and fixed with 1% formaldehyde solution. And then, they were analyzed using FACS Caliber system (BD Biosciences, San Jose, Calif.) with CellQuest and WinMDI 2.9 software according to previously known method (He, R., Sang, H. & Ye, R. D. Serum amyloid A induces IL-8 secretion through a G protein-coupled receptor, FPRL1/LXA4R. Blood 101, 1572-1581, 2003). […]

[2] = target: T1, FPRL1; experiment: Intracellular Ca2+ measurement (fluo-3-AM) in FPRL1/RBL, vector/RBL or FPR/RBL cells; type: cell-based
Method: FPRL1/RBL, vector/RBL or FPR/RBL cells were cultured in a fluo-3-AM working solution containing 0.03% (w/v) plutonic F-127 (Molecular Probes) at 37° C. for 1 hour so that the final concentration of fluo-3-AM became 20 uM/L. After the culturing, fluo-3-AM fluorescence occurred at 488 nm with high-power Ar^+ laser in the cells, and the emission band was measured at 530 nm with photomultiplier. Fluorescence signal was detected using confocal laser scanning system (LSM 510 Meta; Carl Zeiss, Jena, Germany) equipped with Nikon E-600 Eclipse microscope. Fluorescence intensities before adding CTGF (F0) and after adding CTGF (F) were measured. Change in the intracelullar Ca^2+ concentration [Ca^2+]i was indicated by F/F0 ratio. From each cell, 50 to 120 images were scanned.
Since activation of FPRL1 increases intracellular Ca^2+ concentration, the inventors confirmed whether CTGF linker polypeptide activates FPRL1 to finally increase intracellular Ca^2+ concentration by the <Experiment method 8>, and the results are shown in FIG. 12.

[3] = system: HUVECs; experiment: HUVEC proliferation assay ([3H]-thymidine); type: cell-based, human
Method: For proliferation assay, HUVECs were plate cultured in a gelatin-coated 24-well culture dish at 2×10^4 cells/well and allowed to adhere overnight. 4 hours after serum was depleted, the cells were treated with various mitogen (CTGF linker polypeptide, CTGF) for 48 hours. [^3H]-thymidine (1 μCi, Amersham International) was added to each well 6 hours before final culture. The inserted [^3H]-thymidine was extracted in 0.2 M NaOH and 0.1% SDS solution at 37° C. for 1 hour. Radioactivity was measured using liquid scintillation counter (Beckmann Instruments), which was repeated three times, and the result was indicated by mean±standard deviation per minute.
(§1) First, 20 ng/ml of VEGF-A was administered to HUVECs, the degree of cell proliferation, cell migration, or tube formation was confirmed by the <Experiment method 9>, and the results are shown in FIGS. 22 to 24. At this time, FPRL1 antagonist WRW4 was additionally added.

[4] = system: HUVECs; experiment: HUVEC wound migration assay; type: cell-based, human
Method: Specifically, HUVECs inoculated on a 60-mm culture dish to confluence were wounded with the end of a pipette, and treated with linker polypeptide (10^−1˜10^2 nM) or recombinant CTGF (recombinant human CTGF, rhCTGF; BioVendor R&D, NC, USA) (10^1 or 10^2 nM) in Medium 199 to which 1% serum and 1 mM thymidine were added. After culturing 16 hours, the number of cells that migrated over a reference line was counted to quantify the degree of migration, and the cells were photographed with 50× magnification.
as §1

[5] = system: HUVECs; experiment: HUVEC tube formation on Matrigel; type: cell-based, human
Method: Meanwhile, to analyze tube formation, HUVECs were inoculated on the previously polymerized Matrigel (BD Biosciences) layer together with a certain amount of linker polypeptide, rhCTGF or VEGF-A165. After culturing for 18 hours, the shape of the cells was observed by phase-contrast microscopy, and photographed with 40× magnification. By measuring the length of tubes 5 times in LPF (low-power fields) randomly selected from each well using image-Pro Plus v4.5 (Media Cybernetics, Silver Spring, Md.), the degree of tube formation was quantified.
as §1

Row | Substance | binding of biotinylated linker polypeptide to cells ([1]; 10 nM, FPRL1/RBL, vector/RBL or FPR/RBL cells) | Ca2+ concentration, concentration dependence ([2]; FPRL1/RBL cells) | Ca2+ increasing activity compared to rhCTGF and WKYMVm ([2]; FPRL1/RBL cells) | Ca2+ concentration increase, cell specificity ([2]; confocal microscope, FPRL1/RBL, vector/RBL or FPR/RBL cells) | proliferation of HUVECs ([3]; 48 hours, [3H]-thymidine) | migration of HUVECs ([4]; linker polypeptide 10^-1 to 10^2 nM, 16 hours, compared to recombinant CTGF) | tube formation of HUVECs ([5]; 18 hours, compared to recombinant CTGF) | effect of antagonist on linker polypeptide binding ([1]; WRW4 10 uM, 30 minutes) | effect of antagonist on intracellular Ca2+ increase by CTGF linker polypeptide ([2]; WRW4 10 uM) | effect of antagonist on HUVEC proliferation by VEGF-A ([3]; VEGF-A 20 ng/ml plus WRW4) | effect of antagonist on HUVEC migration induced by VEGF-A ([4]; VEGF-A 20 ng/ml, WRW4 10 uM) | effect of antagonist on HUVEC migration induced by CTGF linker polypeptide ([4]; WRW4 10 uM) | effect of antagonist on HUVEC tube formation induced by VEGF-A ([5]; VEGF-A 20 ng/ml, WRW4 10 uM) | effect of antagonist on HUVEC tube formation induced by CTGF linker polypeptide ([5]; WRW4 10 uM)
1 | EWVCDEPKDQTVVGPALAAYRLEDTFGPDPTMIRANCLV (EWVCDEPKDQTVVGPALAAYRLEDTFGPDPTMIRANCLV-NH2; cysteine pairing not given here) [CTGF linker polypeptide] | binds only to FPRL1/RBL cells | increases dependently upon the concentration of CTGF linker polypeptide | more effective than rhCTGF and is similar to positive control of FPRL1 agonist WKYMVm | increased only in FPRL1/RBL cells | induces proliferation of HUVECs in a concentration-dependent manner, the degree is not statistically significant | induces migration of HUVECs in a concentration-dependent manner more effectively than recombinant CTGF | induces tube formation of HUVECs more effectively than recombinant CTGF |  |  |  |  |  |  | 
2 | WRWWWW (FPRL1 antagonist) [WRW4] |  |  |  |  |  |  |  | the linker polypeptide binding is inhibited in FPR/RBL cells | the degree of intracellular Ca^2+ concentration increase by CTGF linker polypeptide decreases | did not exhibit statistically significant inhibition of HUVECs proliferation by VEGF-A | the cell migration is not induced | the cell migration is not induced | the tube formation is not induced | the tube formation is not be induced
